Data taken from the supplement of paper PMC10307832.

How the values were obtained:
Test in all cases: relative viability (nuclei count vs DMSO), 5 days (fraction); higher = more cells survive
Adavosertib + Crizotinib = compound: C=CCn1c(=O)c2cnc(Nc3ccc(N4CCN(C)CC4)cc3)nc2n1-c1cccc(C(C)(C)O)n1 [Adavosertib] + C[C@@H](Oc1cc(-c2cnn(C3CCNCC3)c2)cnc1N)c1c(Cl)ccc(F)c1Cl [Crizotinib] (partner 1 µM)
Outline: (§1)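 The day after seeding in 1536-well plates, lung cancer cell lines were treated by pin tool with a single drug, or with a fixed anchor-drug dose together with five library-drug doses (not always all listed) in √10 steps. After 5 days, a combined fix-and-stain solution (final 0.05% Triton X-100, 1% formaldehyde, 1 ug/ml Hoechst) was added. Nuclei counted on 4× images gave relative viability as treated counts over vehicle counts, reported as the median of duplicate plates.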

Nelarabine + Bortezomib = compound: COc1nc(N)nc2c1ncn2[C@@H]1O[C@H](CO)[C@@H](O)[C@@H]1O [Nelarabine] + CC(C)C[C@H](NC(=O)[C@H](Cc1ccccc1)NC(=O)c1cnccn1)B(O)O [Bortezomib] (partner 0.002 µM)
Outline: as §1

[1] = compound: C=CCn1c(=O)c2cnc(Nc3ccc(N4CCN(C)CC4)cc3)nc2n1-c1cccc(C(C)(C)O)n1 [Adavosertib] + CC(=O)c1c(C)c2cnc(Nc3ccc(N4CCNCC4)cn3)nc2n(C2CCCC2)c1=O [Palbociclib] (partner 0.5 µM)
Outline: as §1

Nelarabine + Vorinostat = compound: COc1nc(N)nc2c1ncn2[C@@H]1O[C@H](CO)[C@@H](O)[C@@H]1O [Nelarabine] + O=C(CCCCCCC(=O)Nc1ccccc1)NO [Vorinostat] (partner 1 µM)
Outline: as §1

Cell Line | relative viability (Adavosertib + Crizotinib; first compound 0.01 µM) | relative viability (Adavosertib + Crizotinib; first compound 0.03162 µM) | relative viability (Adavosertib + Crizotinib; first compound 0.1 µM) | relative viability (Adavosertib + Crizotinib; first compound 0.3162 µM) | relative viability (Nelarabine + Bortezomib; first compound 0.01 µM) | relative viability (Nelarabine + Bortezomib; first compound 0.03162 µM) | relative viability (Nelarabine + Bortezomib; first compound 0.1 µM) | relative viability (Nelarabine + Bortezomib; first compound 0.3162 µM) | relative viability (Nelarabine + Bortezomib; first compound 1 µM) | relative viability ([1]; first compound 0.01 µM) | relative viability ([1]; first compound 0.03162 µM) | relative viability ([1]; first compound 0.1 µM) | relative viability ([1]; first compound 0.3162 µM) | relative viability (Nelarabine + Vorinostat; first compound 0.01 µM) | relative viability (Nelarabine + Vorinostat; first compound 0.03162 µM) | relative viability (Nelarabine + Vorinostat; first compound 0.1 µM) | relative viability (Nelarabine + Vorinostat; first compound 0.3162 µM) | relative viability (Nelarabine + Vorinostat; first compound 1 µM)
NCI-H1975 | 0.962 | 0.952 | 0.904 | 0.625 | 0.362 | 0.258 | 0.429 | 0.399 | 0.404 | 0.551 | 0.559 | 0.488 | 0.608 | 0.87 | 0.7 | 0.778 | 0.796 | 0.76
NCI-H2405 | 0.804 | 0.875 | 0.872 | 0.879 | 1.06 | 0.943 | 0.908 | 1.03 | 0.954 |  | 0.492 | 0.555 | 0.58 | 1.2 | 0.988 | 1.05 | 1.03 | 0.886
NCI-H1734 | 0.817 | 0.772 | 0.82 | 0.695 | 1.1 | 0.961 | 0.949 | 0.9 | 0.955 | 0.332 | 0.326 | 0.353 | 0.375 | 0.839 | 0.704 | 0.772 | 0.766 | 0.892
NCI-H1993 | 0.919 | 0.804 | 0.874 | 0.95 | 1.25 | 1.21 | 1.27 | 1.13 | 1.04 | 0.656 | 0.701 | 0.725 | 0.934 | 0.742 | 0.728 | 0.736 | 0.592 | 0.694
NCI-H1792 | 0.978 | 0.881 | 1.05 | 1.05 | 1.28 |  | 1.05 | 1.17 | 0.85 |  | 0.661 | 0.779 | 0.829 |  |  |  |  | 
NCI-H358 | 0.542 | 0.559 | 0.507 | 0.309 |  |  |  |  |  | 0.15 | 0.137 | 0.0992 | 0.128 | 0.852 | 1.02 | 0.663 | 0.791 | 0.617
Calu-6 | 0.777 | 0.746 | 0.916 | 0.343 | 1.1 |  | 1.05 | 0.947 | 1.08 |  |  |  |  |  |  |  |  | 
PC-14 | 0.91 | 1.02 | 1.02 | 0.646 | 1.14 | 0.898 | 0.854 | 0.828 | 0.841 | 0.508 | 0.577 | 0.516 | 0.0749 | 0.832 | 0.736 | 0.662 | 0.578 | 0.691
NCI-H520 | 0.925 | 0.83 | 0.94 | 0.579 | 0.67 | 0.552 | 0.696 | 0.542 | 0.529 | 0.22 | 0.214 | 0.229 | 0.246 | 0.905 | 0.757 | 0.676 | 0.746 | 0.828
NCI-H23 | 0.532 | 0.558 | 0.517 | 0.432 | 1.38 | 0.97 | 1.13 | 0.957 | 1.1 | 0.503 | 0.53 | 0.419 | 0.219 | 0.737 | 0.604 | 0.548 | 0.615 | 0.584
NCI-H322M |  | 0.982 | 0.834 | 0.743 | 1.29 | 1.2 | 1.18 | 1.28 | 1.46 | 0.439 | 0.479 | 0.417 | 0.463 | 0.942 | 0.856 | 0.954 | 0.943 | 0.802
IA-LM | 0.868 |  | 1.02 | 0.784 | 0.989 | 1.04 | 0.986 | 0.927 | 0.748 |  |  |  |  | 1.11 | 1 | 0.854 | 1.11 | 0.884
LC-2-ad | 0.499 | 0.442 | 0.547 | 0.528 | 1.08 | 1.03 | 0.972 | 1.26 | 1.07 | 0.535 | 0.467 | 0.55 | 0.519 | 0.814 | 0.738 | 0.67 | 0.721 | 0.676
LOU-NH91 | 0.709 | 0.712 | 0.788 | 0.726 | 0.447 | 0.519 | 0.553 | 0.474 | 0.513 | 0.609 | 0.497 | 0.548 | 0.531 | 0.993 | 0.814 | 0.889 | 0.931 | 0.873
A549 | 0.733 | 0.807 | 0.891 | 0.702 |  |  |  |  |  |  |  |  |  |  |  |  |  | 
NCI-H1648 |  |  |  |  |  |  |  |  |  | 0.311 | 0.29 | 0.219 | 0.244 |  | 0.761 |  | 0.412 | 0.642
NCI-H1793 |  |  |  |  |  |  |  |  |  | 0.293 | 0.293 | 0.298 | 0.275 | 1.05 |  | 0.885 | 0.987 | 0.784
SW 900 |  |  |  |  |  |  |  |  |  | 0.403 | 0.633 | 0.567 | 0.538 | 0.471 | 0.567 | 0.795 | 0.628 | 0.448
NCI-H596 | 1.04 | 1.07 | 1.11 | 1.03 | 0.906 | 0.651 | 1.28 | 0.96 | 0.982 |  |  |  |  | 0.546 | 0.608 | 0.613 | 0.671 | 0.661
EBC-1 | 0.206 | 0.192 | 0.206 | 0.175 | 0.559 | 0.525 | 0.548 | 0.55 | 0.549 |  |  |  |  |  |  |  |  | 
NCI-H2342 |  |  |  |  |  |  |  |  |  | 0.5 | 0.526 | 0.509 | 0.566 | 0.933 | 0.753 | 0.806 | 0.74 | 0.728
NCI-H1563 | 0.837 | 0.942 | 0.936 | 0.924 | 0.943 | 0.903 | 0.766 | 0.84 | 0.908 |  |  |  |  |  |  |  |  | 
NCI-H1299 | 0.929 | 0.936 | 0.96 | 0.49 | 1.08 | 1.09 | 1.05 | 1.06 | 1.01 |  |  |  |  |  |  |  |  | 
NCI-H1944 | 1.14 | 1.11 | 1.17 | 1.13 |  |  |  |  |  | 0.298 | 0.317 | 0.317 | 0.319 | 0.669 | 0.549 | 0.54 | 0.559 | 0.538
